Measurements reported in patent US20220007644A1, “COMPOSITIONS COMPRISING PYRIDINE CARBOXYLATE HERBICIDES WITH PHOTOSYSTEM II AND OPTIONAL HPPD INHIBITOR HERBICIDES” (Corteva Agriscience LLC, priority 2018, published 2022).

Key:
Format in all cases: in vivo
Conditions in all cases: 140 g ai/ha alone
[1] = tested on: HORVS, Hordeum vulgare (spring barley); assay: Greenhouse postemergence phytotoxicity on crop (visual injury, 20-22 d)
Excerpt: (§1) Greenhouse Trial Methodology—Evaluation of Postemergence Herbicidal Effect
(§2) Seeds of the desired test plant species were planted in a 90:10% v/v (volume/volume) mixture of PRO-MIX® BX (Premier Tech Horticulture, Quakertown, Pa., USA) and PROFILE®GREENS GRADE™ (Profile Products LLC, Buffalo Grove, Ill., USA) planting mixture, which typically has a pH of 5.2 to 6.2 and an organic matter content of at least 50 percent, in plastic pots with a surface area of 103.2 square centimeters (cm^2). In some aspects, to help ensure good germination and healthy plants, a fungicide treatment and/or other chemical or physical treatment was applied. The plants were grown for 7-36 days (d) in a greenhouse with an approximate 14-hour (h) photoperiod which was maintained at about 23° C. during the day and 22° C. during the night. Nutrients and water were added on a regular basis and supplemental lighting was provided with overhead metal halide 1000-Watt lamps as necessary. The plants were employed for testing when they reached the second or third true leaf stage.
(§3) Emulsifiable concentrates of each of each pyridine carboxylate herbicide (Compound A or Compound B) were prepared at 100 grams acid equivalent per liter (g ae/L). The emulsifiable concentrates also included a safener, cloquintocet-mexyl, at 120 grams active ingredient per liter (g ai/L), unless otherwise noted below. An aliquot of each emulsifiable concentrate was placed in a 25 mL glass vial and diluted with an aqueous mixture of 1.25% (v/v) ACTIROB® B esterified rapeseed oil (Bayer Crop Science, Research Triangle Park, N.C., USA) or MSO® Concentrate with LECI-TECH® methylated soybean oil (Loveland Products, Loveland, Colo., USA) to obtain concentrated stock solutions at the highest application rate for each herbicide, based upon a 12 milliliter (mL) application volume at a rate of 187 liters per hectare (L/ha). The concentrated stock solutions were further diluted with an aqueous mixture of 1.25% v/v ACTIROB® B or MSO® Concentrate with LECI-TECH® to obtain stock solutions at reduced application rates for each herbicide. Spray solutions of the herbicide combinations (Compound A or Compound B plus PS-II herbicide and optional HPPD herbicide) were prepared by adding weighed amounts or aliquots of the PS-II herbicide and optional HPPD herbicide to the stock solutions of Compound A or Compound B to form 12-mL spray solutions in two- or three-way combinations.
(§4) The spray solutions were applied to the plant material with an overhead Mandel track sprayer equipped with 8002E nozzles calibrated to deliver 187 L/ha over an application area of 0.503 square meters (m^2) at a spray height of 18 inches ([…] centimeters (cm)) above the average plant canopy. Control plants were sprayed in the same manner with the solvent blank. All pyridine carboxylate herbicide (component a) application rates are given as “g ae/ha” and all PS II inhibitor herbicide (component b) and HPPD inhibitor herbicide (component c) application rates are given as “g ai/ha.”
(§5) The treated plants and control plants were placed in a greenhouse as described above and watered by sub-irrigation to prevent wash-off of the test compounds. After 20-22 d, the condition of the test plants as compared with that of the control plants was determined visually and scored on a scale of 0 to 100 percent where 0 corresponds to no injury and 100 corresponds to complete kill.

[2] = tested on: TRZAS, Triticum aestivum (spring wheat); assay: as above
Excerpt: as §1, §2, §3, §4, §5

[3] = tested on: SASKR, Salsola kali (Russian thistle); assay: Greenhouse postemergence herbicidal effect (visual injury, 20-22 d)
Excerpt: as §1, §2, §3, §4, §5

[4] = tested on: AMARE, Amaranthus retroflexus (pigweed); assay: as above
Excerpt: as §1, §2, §3, §4, §5

[5] = tested on: VIOTR, Viola tricolor (wild pansy); assay: as above
Excerpt: as §1, §2, §3, §4, §5

[6] = tested on: CIRAR, Cirsium arvense (Canada thistle); assay: as above
Excerpt: as §1, §2, §3, §4, §5

[7] = tested on: SETFA, Setaria faberi (giant foxtail); assay: as above
Excerpt: as §1, §2, §3, §4, §5

[8] = tested on: MATCH, Matricaria chamomilla (wild chamomile); assay: as above
Excerpt: as §1, §2, §3, §4, §5

[9] = tested on: BRSNN, Brassica napus (spring rape); assay: as above
Excerpt: as §1, §2, §3, §4, §5

[10] = tested on: KCHSC, Kochia scoparia (kochia); assay: as above
Excerpt: as §1, §2, §3, §4, §5

[11] = tested on: STEME, Stellaria media (chickweed); assay: as above
Excerpt: as §1, §2, §3, §4, §5

[12] = tested on: ABUTH, Abutilon theophrasti (velvetleaf); assay: as above
Excerpt: as §1, §2, §3, §4, §5

[13] = tested on: EPHHL, Euphorbia heterophylla (poinsettia); assay: as above
Excerpt: as §1, §2, §3, §4, §5

[14] = tested on: SINAR, Sinapis arvensis (wild mustard); assay: as above
Excerpt: as §1, §2, §3, §4, §5

[15] = tested on: POLCO, Polygonum convolvulus (wild buckwheat); assay: as above
Excerpt: as §1, §2, §3, §4, §5

[16] = tested on: BRSNW, Brassica napus (winter rape); assay: as above
Excerpt: as §1, §2, §3, §4, §5

[17] = tested on: CHEAL, Chenopodium album L. (common lambsquarters); assay: as above
Excerpt: as §1, §2, §3, §4, §5

N#Cc1cc(Br)c(O)c(Br)c1 [Bromoxynil, 3,5-dibromo-4-hydroxbenzonitrile, reference compound]
visual injury [1]: 0% | visual injury [2]: 0% | visual injury [3]: 75% | visual injury [4]: 5% | visual injury Obs [5]: 0% | visual injury [6]: 45% | visual injury Obs [6]: 60% | visual injury Obs [7]: 0% | visual injury [8]: 5% | visual injury Obs [9]: 3% | visual injury [10]: 38% | visual injury Obs [10]: 35% | visual injury Obs [11]: 0% | visual injury Obs [12]: 30% | visual injury Obs [13]: 30% | visual injury [14]: 10% | visual injury [15]: 100% | pest or weed control at 140 g/ha ([15]; Fallopia convolvulus, post-emergence, read-out: visual injury Obs): 55% | visual injury [16]: 10% | visual injury [17]: 0% | visual injury Obs [17]: 48%
